Measured values: patent publication US20220213063A1, “N-[l-(5-BROMO-2-PYRIMIDIN-2-YL-1,2,4-TRIAZOL-3-YL)ETHYL]-2-CYCLOPROPYL-6-(TRIFLUOROMETHYL)PYRIDINE-4-CARBOXAMIDE DERIVATIVES AND RELATED COMPOUNDS AS INSECTICIDES” (SYNGENTA CROP PROTECTION AG, priority 2019, published 2022)

Columns and labels:
Assay type in all cases: in vivo
[1] = system: Chilo suppressalis (Striped Rice Stemborer); experiment: Example B4: Chilo suppressalis (striped rice stemborer), artificial diet; settings: 144 h, application rate of 200 ppm, L2 larvae, 6 days after infestation, in comparison to untreated samples, read-out: control in at least one of the three categories (mortality, anti-feedant or growth inhibition)
Experimental: Example B4: Chilo suppressalis (Striped Rice Stemborer)
24-well microtiter plates with artificial diet were treated with aqueous test solutions prepared from 10'000 ppm DMSO stock solutions by pipetting. After drying, the plates were infested with L2 larvae (6-8 per well). The samples were assessed for mortality, anti-feeding effect, and growth inhibition in comparison to untreated samples 6 days after infestation. Control of Chilo suppressalis by a test sample is given when at least one of the categories mortality, anti-feedant effect, and growth inhibition is higher than the untreated sample.

[2] = system: Plutella xylostella (Diamond Back Moth); experiment: Example B5: Plutella xylostella (diamond back moth), artificial diet; settings: 192 h, application rate of 200 ppm, eggs, 8 days after infestation, in comparison to untreated samples, read-out: effect in at least one of the two categories (mortality or growth inhibition)
Experimental: Example B5: Plutella xylostella (Diamond Back Moth)
24-well microtiter plates with artificial diet were treated with aqueous test solutions prepared from 10'000 ppm DMSO stock solutions by pipetting. After drying, Plutella eggs were pipetted through a plastic stencil onto a gel blotting paper and the plate was closed with it. The samples were assessed for mortality and growth inhibition in comparison to untreated samples 8 days after infestation.
The following compounds gave an effect of at least 80% in at least one of the two categories (mortality or growth inhibition) at an application rate of 200 ppm: […]

[3] = system: Spodoptera littoralis (Egyptian Cotton Leaf Worm); experiment: Example B9: Spodoptera littoralis (Egyptian cotton leaf worm), sprayed cotton leaf discs; settings: foliar, 72 h, application rate of 200 ppm, L1 larvae, 3 days after infestation, in comparison to untreated samples, read-out: control in at least one of the three categories (mortality, anti-feedant effect, or growth inhibition)
Experimental: Example B9: Spodoptera littoralis (Egyptian Cotton Leaf Worm)
Cotton leaf discs were placed onto agar in 24-well microtiter plates and sprayed with aqueous test solutions prepared from 10'000 ppm DMSO stock solutions. After drying the leaf discs were infested with five L1 larvae. The samples were assessed for mortality, anti-feeding effect, and growth inhibition in comparison to untreated samples 3 days after infestation. Control of Spodoptera littoralis by a test sample is given when at least one of the categories mortality, anti-feedant effect, and growth inhibition is higher than the untreated sample.

[4] = system: Diabrotica Balteata (Corn Root Worm); experiment: Example B1: Diabrotica balteata (corn root worm), sprayed maize sprouts; settings: 96 h, application rate of 200 ppm, L2 larvae, 4 days after infestation, in comparison to untreated samples, read-out: control in at least one of the two categories (mortality or growth inhibition)
Experimental: Example B1: Diabrotica Balteata (Corn Root Worm)
Maize sprouts placed onto an agar layer in 24-well microtiter plates were treated with aqueous test solutions prepared from 10'000 ppm DMSO stock solutions by spraying. After drying, the plates were infested with L2 larvae (6 to 10 per well). The samples were assessed for mortality and growth inhibition in comparison to untreated samples 4 days after infestation.
The following compounds gave an effect of at least 80% control in at least one of the two categories (mortality or growth inhibition) at an application rate of 200 ppm: […]

[5] = system: Frankliniella occidentalis (Western Flower Thrips); experiment: Example B3: Frankliniella occidentalis (western flower thrips), feeding/contact activity; settings: 168 h, application rate of 200 ppm, population of mixed ages, 7 days after infestation
Experimental: Example B3: Frankliniella occidentalis (Western Flower Thrips):Feeding/Contact Activity
Sunflower leaf discs were placed on agar in 24-well microtiter plates and sprayed with aqueous test solutions prepared from 10'000 DMSO stock solutions. After drying the leaf discs were infested with a Frankliniella population of mixed ages. The samples were assessed for mortality 7 days after infestation.

[6] = system: Myzus persicae (Green Peach Aphid); experiment: Example B8: Myzus persicae (green peach aphid), intrinsic activity; settings: 120 h, test rate of 12 ppm, mixed with sucrose solution, 5 days after infestation
From the text: Example B8: Myzus persicae (Green Peach Aphid): Intrinsic Activity
Test compounds prepared from 10'000 ppm DMSO stock solutions were applied by pipette into 24-well microtiter plates and mixed with sucrose solution. The plates were closed with a stretched Parafilm. A plastic stencil with 24 holes was placed onto the plate and infested pea seedlings were placed directly on the Parafilm. The infested plate was closed with a gel blotting paper and another plastic stencil and then turned upside down. The samples were assessed for mortality 5 days after infestation.

CC(NC(=O)c1cc(C(F)(F)F)nc(C2(C#N)CC2)c1)c1nc(Br)nn1-c1ccc(F)cn1 (stereo not shown) [Compound P1, N-[1-[5-bromo-2-(5-fluoro-2-pyridyl)-1,2,4-triazol-3-yl]ethyl]-2-(1-cyanocyclopropyl)-6-(trifluoromethyl)pyridine-4-carboxamide]
≥ 80%: percent control (mortality, anti-feedant effect or growth inhibition) at 200 ppm [1] | percent effect (mortality or growth inhibition) at 200 ppm [2] | percent control (mortality, anti-feedant effect or growth inhibition) at 200 ppm [3] | percent control (mortality or growth inhibition) at 200 ppm [4]

CC(NC(=O)c1cc(C(F)(F)F)nc(C2(C#N)CC2)c1)c1nc(Br)nn1-c1ncccn1 (stereo not shown) [Compound P3, N-[1-(5-bromo-2-pyrimidin-2-yl-1,2,4-triazol-3-yl)ethyl]-2-(1-cyanocyclopropyl)-6-(trifluoromethyl)pyridine-4-carboxamide]
≥ 80%: percent control (mortality, anti-feedant effect or growth inhibition) at 200 ppm [1] | percent effect (mortality or growth inhibition) at 200 ppm [2] | percent control (mortality, anti-feedant effect or growth inhibition) at 200 ppm [3] | mortality at 200 ppm [5] | percent control (mortality or growth inhibition) at 200 ppm [4] | mortality at 12 ppm [6]

CC(NC(=O)c1cc(C(F)(F)F)cc(C(F)(F)C2CC2)c1)c1nc(Br)nn1-c1ncccn1 (stereo not shown) [Compound P4, N-[1-(5-bromo-2-pyrimidin-2-yl-1,2,4-triazol-3-yl)ethyl]-3-[cyclopropyl(difluoro)methyl]-5-(trifluoromethyl)benzamide]
≥ 80%: percent control (mortality, anti-feedant effect or growth inhibition) at 200 ppm [1] | percent effect (mortality or growth inhibition) at 200 ppm [2] | percent control (mortality, anti-feedant effect or growth inhibition) at 200 ppm [3] | percent control (mortality or growth inhibition) at 200 ppm [4]

CC(NC(=O)c1cc(C2CC2)nc(C(F)(F)F)c1)c1nc(Br)nn1-c1ncccn1 (stereo not shown) [Compound P5, N-[1-(5-bromo-2-pyrimidin-2-yl-1,2,4-triazol-3-yl)ethyl]-2-cyclopropyl-6-(trifluoromethyl)pyridine-4-carboxamide]
≥ 80%: percent control (mortality, anti-feedant effect or growth inhibition) at 200 ppm [1] | percent effect (mortality or growth inhibition) at 200 ppm [2] | percent control (mortality, anti-feedant effect or growth inhibition) at 200 ppm [3] | percent control (mortality or growth inhibition) at 200 ppm [4]

CC(NC(=O)c1cc(C2CC2)cc(C(F)(F)F)c1)c1nc(Br)nn1-c1ncccn1 (stereo not shown) [Compound P6, N-[1-(5-bromo-2-pyrimidin-2-yl-1,2,4-triazol-3-yl)ethyl]-3-cyclopropyl-5-(trifluoromethyl)benzamide]
≥ 80%: percent control (mortality, anti-feedant effect or growth inhibition) at 200 ppm [1] | percent effect (mortality or growth inhibition) at 200 ppm [2] | percent control (mortality, anti-feedant effect or growth inhibition) at 200 ppm [3] | percent control (mortality or growth inhibition) at 200 ppm [4]

CC(NC(=O)c1cc(C2CC2C(F)(F)F)cc(C(F)(F)F)c1)c1nc(Br)nn1-c1ncccn1 (stereo not shown) [Compound P7, N-[1-(5-bromo-2-pyrimidin-2-yl-1,2,4-triazol-3-yl)ethyl]-3-(trifluoromethyl)-5-[2-(trifluoromethyl)cyclopropyl]benzamide]
≥ 80%: percent control (mortality, anti-feedant effect or growth inhibition) at 200 ppm [1] | percent effect (mortality or growth inhibition) at 200 ppm [2] | percent control (mortality, anti-feedant effect or growth inhibition) at 200 ppm [3] | percent control (mortality or growth inhibition) at 200 ppm [4]

CC(NC(=O)c1cc(C2CC2)cc(C(F)(F)F)c1)c1nc(Br)nn1-c1ccc(F)cn1 (stereo not shown) [Compound P8, N-[1-[5-bromo-2-(5-fluoro-2-pyridyl)-1,2,4-triazol-3-yl]ethyl]-3-cyclopropyl-5-(trifluoromethyl)benzamide]
≥ 80%: percent control (mortality, anti-feedant effect or growth inhibition) at 200 ppm [1] | percent effect (mortality or growth inhibition) at 200 ppm [2]
